# Measured values as given in the supplement of paper PMC13380429.
# How the values were obtained:
# Settings in all cases: 72 h
# Caco-2 [1] = assay: cell viability relative to DMSO; higher = less toxic
# Calu-3 [2] = assay: as above
# HepG2 [3] = assay: as above
# U2OS [4] = assay: as above
# Vero E6 [5] = assay: as above
# Caco-2 [6] = assay: relative viability EC50 (midpoint between 100% and the lowest measured viability); higher = less toxic
# Calu-3 [7] = assay: as above
# HepG2 [8] = assay: as above
# U2OS [9] = assay: as above
# Vero E6 [10] = assay: as above
# Caco-2 [11] = assay: drug sensitivity score (DSS) for viability; higher = more toxic; extreme values may be limits of the assay
# Calu-3 [12] = assay: as above
# HepG2 [13] = assay: as above
# U2OS [14] = assay: as above
# Vero E6 [15] = assay: as above
Compound,cell viability (Caco-2 [1]; 1 nM),cell viability (Caco-2 [1]; 10 nM),cell viability (Caco-2 [1]; 100 nM),cell viability (Caco-2 [1]; 1000 nM),cell viability (Caco-2 [1]; 10000 nM),cell viability (Calu-3 [2]; 1 nM),cell viability (Calu-3 [2]; 10 nM),cell viability (Calu-3 [2]; 100 nM),cell viability (Calu-3 [2]; 1000 nM),cell viability (Calu-3 [2]; 10000 nM),cell viability (HepG2 [3]; 1 nM),cell viability (HepG2 [3]; 10 nM),cell viability (HepG2 [3]; 100 nM),cell viability (HepG2 [3]; 1000 nM),cell viability (HepG2 [3]; 10000 nM),cell viability (U2OS [4]; 1 nM),cell viability (U2OS [4]; 10 nM),cell viability (U2OS [4]; 100 nM),cell viability (U2OS [4]; 1000 nM),cell viability (U2OS [4]; 10000 nM),cell viability (Vero E6 [5]; 1 nM),cell viability (Vero E6 [5]; 10 nM),cell viability (Vero E6 [5]; 100 nM),cell viability (Vero E6 [5]; 1000 nM),cell viability (Vero E6 [5]; 10000 nM),relative viability EC50 (Caco-2 [6]),relative viability EC50 (Calu-3 [7]),relative viability EC50 (HepG2 [8]),relative viability EC50 (U2OS [9]),relative viability EC50 (Vero E6 [10]),drug sensitivity score (Caco-2 [11]),drug sensitivity score (Calu-3 [12]),drug sensitivity score (HepG2 [13]),drug sensitivity score (U2OS [14]),drug sensitivity score (Vero E6 [15])
CCOC(=O)[C@H](CCc1ccccc1)N[C@@H](C)C(=O)N1C(=O)N(C)C[C@H]1C(=O)O [imidapril],95.1%,87.8%,93.9%,97.6%,97.8%,98.5%,96.4%,99.8%,97.5%,96.8%,94.6%,103%,104%,113%,104%,101%,93.4%,97.7%,95.7%,102%,104%,98.3%,98.1%,101%,99.9%,> 10 µM,> 10 µM,> 10 µM,> 10 µM,> 10 µM,0,0,0,0,0
CCS(=O)(=O)N1CCC[C@@H]2CN3CCc4cc(OC)ccc4[C@@H]3C[C@@H]21,94.7%,94.2%,95%,104%,91.7%,103%,90.4%,109%,101%,103%,99.9%,113%,109%,92.2%,102%,99.5%,103%,108%,108%,106%,96.3%,103%,97.1%,93.8%,105%,> 10 µM,> 10 µM,> 10 µM,> 10 µM,> 10 µM,0,0,0,0,0
Cc1ccc(=O)n(-c2ccc(O)cc2)c1 [F351],92.1%,92.6%,96.7%,100%,93%,90.2%,105%,96.9%,85.2%,97.4%,105%,93.1%,108%,101%,96.9%,99.2%,97.3%,97.2%,100%,97.4%,98.1%,100%,94.4%,99.1%,95.4%,> 10 µM,> 10 µM,> 10 µM,> 10 µM,> 10 µM,0,0,0,0,0
CCOc1cc(OCC)c(C(=O)CCC(=O)O)cc1OCC [trepibutone],98.6%,98.4%,102%,101%,96.7%,108%,105%,107%,102%,99.8%,100%,96.9%,104%,98.1%,99.9%,101%,94.3%,94.5%,100%,96.6%,94.5%,105%,99.8%,97.3%,92.7%,> 10 µM,> 10 µM,> 10 µM,> 10 µM,> 10 µM,0,0,0,0,0
CC1CC(OC(=O)C(O)c2ccccc2)CC(C)(C)C1 (stereo not given) [cyclandelate],91.5%,105%,94.3%,105%,108%,95.9%,90.2%,102%,95.5%,99%,103%,91.9%,100%,96.3%,98.3%,97.2%,103%,97.5%,102%,97.5%,97.8%,99.1%,100%,96.7%,94.9%,> 10 µM,> 10 µM,> 10 µM,> 10 µM,> 10 µM,0,0,0,0,0
Nc1ncc(Cc2ccc(Br)cc2)s1,97.3%,95.1%,85.2%,99.3%,96.7%,95.6%,91.8%,103%,94.3%,119%,98%,88.6%,115%,96.3%,99.9%,93.5%,102%,94.9%,101%,102%,99.9%,94%,100%,92.2%,107%,> 10 µM,> 10 µM,> 10 µM,> 10 µM,> 10 µM,0,0,0,0,0
N#CN=C(NCCCCCCOc1ccc(Cl)cc1)Nc1ccncc1 [GMX1778],104%,102%,3.2%,3.5%,3.2%,104%,102%,7.1%,4.8%,3.9%,109%,26%,19.5%,16.3%,8.4%,102%,110%,0.1%,-0.3%,-0.5%,98.3%,99%,101%,1.7%,1.2%,0.0332 µM,0.0356 µM,0.0058 µM,0.0363 µM,0.326 µM,29.3,28.8,36.6,29.7,17.6
CNC(=O)c1ccc(N2C(=S)N(c3cnc(C#N)c(C(F)(F)F)c3)C(=O)C23CCC3)cc1F [apalutamide],104%,107%,94.1%,90.6%,93.5%,106%,103%,103%,102%,97.1%,99.5%,107%,112%,109%,104%,98%,98.6%,96.7%,97.7%,96.9%,104%,107%,99.3%,105%,98.8%,> 10 µM,> 10 µM,> 10 µM,> 10 µM,> 10 µM,0,0,0,0,0
Cc1cccc(C)c1OCC(=O)N[C@@H](Cc1ccccc1)[C@@H](O)C[C@H](Cc1ccccc1)NC(=O)[C@H](C(C)C)N1CCCNC1=O [lopinavir],90.9%,102%,102%,93.9%,84.8%,103%,90.1%,97.3%,102%,104%,107%,106%,108%,104%,86.5%,101%,107%,100%,101%,93.3%,103%,99.1%,104%,101%,110%,> 10 µM,> 10 µM,> 10 µM,> 10 µM,> 10 µM,0.7,0,0.1,0,0
O=C(Nc1ccccc1)c1cc([N+](=O)[O-])ccc1Cl [GW-9662],98%,94.1%,103%,90.1%,93.3%,93.7%,93.6%,101%,100%,96.7%,94.9%,100%,90%,102%,88.3%,106%,91.7%,101%,91.6%,96.8%,103%,106%,98.2%,99.9%,97.7%,> 10 µM,> 10 µM,> 10 µM,> 10 µM,> 10 µM,0,0,0,0,0
O=C(O)c1ccccc1-c1ccc(C(F)(F)F)cc1 [xenalipin],97.1%,92.8%,99%,92.1%,97.6%,101%,101%,111%,98.6%,107%,89.1%,90.8%,94.6%,97%,109%,100%,95.8%,103%,98%,105%,98.6%,104%,92.2%,98.6%,98.2%,> 10 µM,> 10 µM,> 10 µM,> 10 µM,> 10 µM,0,0,0,0,0
CC(=O)Nc1cccc(O)c1 [metacetamol],104%,101%,89.1%,93.8%,98.8%,98.1%,101%,99.9%,99.8%,96.9%,103%,91.5%,93.7%,92.1%,83.8%,103%,101%,99.7%,95.5%,101%,102%,94.1%,96%,97.9%,102%,> 10 µM,> 10 µM,> 10 µM,> 10 µM,> 10 µM,0,0,0.6,0,0
C#CCOC(=O)C1=CCCN(C)C1 [arecaidine-propargyl-ester],91.4%,98.4%,94.4%,98%,103%,100%,103%,95.2%,100%,95.6%,95.1%,95.5%,101%,102%,102%,98%,93.2%,99.3%,102%,101%,97.4%,99%,95%,98.4%,107%,> 10 µM,> 10 µM,> 10 µM,> 10 µM,> 10 µM,0,0,0,0,0
Nc1nc(=O)n([C@@H]2O[C@H](CO)[C@@H](O)[C@@H]2F)cc1I [fiacitabine],93.8%,99.5%,90.1%,84.3%,93.2%,93.1%,102%,102%,109%,96%,104%,91.4%,96.1%,106%,83.6%,99.8%,104%,93.6%,98.6%,100%,98.9%,97.6%,98.9%,100%,96.7%,> 10 µM,> 10 µM,> 10 µM,> 10 µM,> 10 µM,0.2,0,0.2,0,0
